Assay results: ChEMBL document CHEMBL1145672, “Isolation and identification of trachyloban-19-oic and (-)-kaur-16-en-19-oic acids as antimicrobial agents from the prairie sunflower, Helianthus annuus” (1983)
In brackets after ≈: the same amount, converted by molar mass. Activity calls are given as the source filed them. The rule behind the calls is not given here.

Assays:
Klebsiella pneumoniae [1] = experiment: Antimicrobial activity against Klebsiella pneumoniae ATCC 10031 by agar-dilution streak method; format: functional
Escherichia coli [2] = experiment: Antimicrobial activity against Escherichia coli ATCC 9637 by agar-dilution streak method; format: functional
[3] = tested on: Mycolicibacterium smegmatis; experiment: Antimicrobial activity against Mycobacterium smegmatis ATCC 607 by agar-dilution streak method; format: functional
Candida albicans = experiment: Antimicrobial activity against Candida albicans ATCC 10231at 100 ug/mL by agar-dilution streak method; format: functional, organism-based
Staphylococcus aureus [4] = experiment: Antimicrobial activity against Staphylococcus aureus ATCC 13709 by agar-dilution streak method; format: functional
[5] = tested on: Salmonella enterica subsp. enterica serovar Gallinarum; experiment: Antimicrobial activity against Salmonella gallinarum ATCC 9184 by agar-dilution streak method; format: functional
Klebsiella pneumoniae [6] = experiment: Antimicrobial activity against Klebsiella pneumoniae ATCC 10031 at 100 ug/mL by agar-dilution streak method; format: functional, organism-based
[7] = tested on: Salmonella enterica subsp. enterica serovar Gallinarum; experiment: Antimicrobial activity against Salmonella gallinarum ATCC 9184 at 100 ug/mL by agar-dilution streak method; format: functional, organism-based
Escherichia coli [8] = experiment: Antimicrobial activity against Escherichia coli ATCC 9637 at 100 ug/mL by agar-dilution streak method; format: functional, organism-based
Staphylococcus aureus [9] = experiment: Antimicrobial activity against Staphylococcus aureus ATCC 13709 at 100 ug/mL by agar-dilution streak method; format: functional, organism-based

| SMILES | MIC (Klebsiella pneumoniae [1]) | MIC (Escherichia coli [2]) | MIC [3] | Activity (Candida albicans) | MIC (Staphylococcus aureus [4]) | MIC [5] | Activity (Klebsiella pneumoniae [6]) | Activity [7] | Activity (Escherichia coli [8]) | Activity (Staphylococcus aureus [9]) |
| --- | --- | --- | --- | --- | --- | --- | --- | --- | --- | --- |
| CN[C@@H]1[C@H](O[C@H]2[C@H](O[C@H]3[C@H](O)[C@@H](O)[C@H](N=C(N)N)[C@@H](O)[C@@H]3N=C(N)N)O[C@@H](C)[C@]2(O)C=O)O[C@@H](CO)[C@H](O)[C@H]1O [STREPTOMYCIN] | 1.56 µg/mL (≈ 2.68 µM) | 12.5 µg/mL (≈ 21.5 µM) | 0.78 µg/mL (≈ 1.34 µM) | inactive | 3.1 µg/mL (≈ 5.33 µM) | 25 µg/mL (≈ 43 µM) | – | – | – | – |
| C[C@@]12C[C@@]34CC[C@H]5[C@@](C)(CCC[C@]5(C)C(=O)O)[C@@H]3C[C@H]1[C@H]2C4 | – | – | 6.25 µg/mL (≈ 20.7 µM) | inactive | 6.25 µg/mL (≈ 20.7 µM) | – | inactive | inactive | inactive | – |
| C=C1C[C@@]23CC[C@H]4[C@@](C)(CCC[C@@]4(C)C(=O)OC)[C@@H]2CC[C@@H]1C3 [KAURENOIC ACID METHYL ESTER] | – | – | 25 µg/mL (≈ 79 µM) | inactive | – | – | inactive | inactive | inactive | inactive |
| C=C1C[C@@]23CC[C@H]4[C@@](C)(CCC[C@]4(C)C(=O)O)[C@@H]2CCC1C3 | – | – | 6.25 µg/mL (≈ 20.7 µM) | inactive | 12.5 µg/mL (≈ 41.3 µM) | – | inactive | inactive | inactive | – |
